Source: patent US8388986B2, “Use of cationic surfactants in cosmetic preparations” (priority 2001, dated 2013)

What was measured:
[1] = system: Clostridium perfringens ATCC 77454; assay type: cell-based; settings: Gram + Bacteria
[2] = system: Proteus mirabilis CECT 170; assay: minimum inhibitory concentration; assay type: cell-based; settings: Gram − Bacteria
[3] = system: Escherichia coli ATCC 8739; assay: minimum inhibitory concentration; assay type: cell-based; settings: Gram − Bacteria
[4] = system: Bacillus subtilis ATCC 6633; assay: minimum inhibitory concentration; assay type: cell-based; settings: Gram + Bacteria
[5] = system: Candida albicans ATCC 10231; assay: minimum inhibitory concentration; assay type: cell-based; settings: Yeast
[6] = system: Escherichia coli 0157H7; assay: minimum inhibitory concentration; assay type: cell-based; settings: Gram − Bacteria
[7] = system: Chaetonium globosum ATCC 6205; assay: minimum inhibitory concentration; assay type: cell-based; settings: Fungi
[8] = system: Klebsiella pneumoniae var pneumoniae CECT 178; assay: minimum inhibitory concentration; assay type: cell-based; settings: Gram − Bacteria
[9] = system: Staphylococcus aureus ATCC 6538; assay: minimum inhibitory concentration; assay type: cell-based; settings: Gram + Bacteria
[10] = system: Leuconostoc mesenteroides CETC 912; assay: minimum inhibitory concentration; assay type: cell-based; settings: Gram + Bacteria
[11] = system: Mycobacterium phlei ATCC 41423; assay: minimum inhibitory concentration; assay type: cell-based; settings: Gram + Bacteria
[12] = system: Pseudomonas aeruginosa ATCC 9027; assay: minimum inhibitory concentration; assay type: cell-based; settings: Gram − Bacteria
[13] = system: Penicillium chrysogenum CECT 2802; assay: minimum inhibitory concentration; assay type: cell-based; settings: Fungi
[14] = system: Enterobacter aerogenes CECT 689; assay: minimum inhibitory concentration; assay type: cell-based; settings: Gram − Bacteria
[15] = system: Bacillus cereus var mycoide ATCC 11778; assay: minimum inhibitory concentration; assay type: cell-based; settings: Gram + Bacteria
[16] = system: Yeast; assay: preservative efficacy (Antimicrobial Effectiveness Testing USP 24th Edition) in cosmetic formulations; assay type: cell-based, Candida albicans ATCC 10231; settings: 0.20 g of LAE
Protocol: This assay consists of the contamination of the protecting formulations with an inoculum mixture of 10^8 cfu/mL concentration, for each of the microorganisms, and the determination of the number of viable cells in the time. This inoculum mixture is composed of the following microorganisms:
The cosmetic composition to be analysed is divided into sterile containers with 50 g of product for each flask. Each container is inoculated with 0.5 mL of inoculum (10^8 cfu/mL). The target concentration is 10^6 cfu/mL, approximately. All the containers are kept at a temperature between 20-25° C. and are protected from light.
The level of the microbial contamination is checked at 0 hours, 7 days, 14 days and 28 days. The number of colonies is evaluated by dilution in buffer peptone with the appropriate neutraliser agent of the preservative. The culture media used for counting the microorganisms are: Soya triptone (35-37° C., 48 hours) for the determination of bacteria; Sabouraud agar with chloramphenicol for fungi and yeast (25° C., 3-5 days).
According to Antimicrobial Effectiveness Testing USP 24th Edition, 1999 (pp. 1809-1811), an antimicrobial preservative is considered to be effective in topically used products made with aqueous bases or vehicles, non-sterile nasal products and emulsions, including those applied to mucous membranes, if: • Not less than 2.0 logarithm reduction from the initial calculated bacteria's count is reached at 14 days and no increase from the 14 days' count at 28 days is detected; and • No increase from the initial calculated count of yeast and moulds is observed.

[17] = system: Saccharomyces cerevisiae ATCC 9763; assay: minimum inhibitory concentration; assay type: cell-based; settings: Yeast
[18] = system: Rhodotorula rubra CECT 1158; assay: minimum inhibitory concentration; assay type: cell-based; settings: Yeast
[19] = system: Listeria monocytogenes ATCC 7644; assay: minimum inhibitory concentration; assay type: cell-based; settings: Gram + Bacteria
[20] = system: Micrococcus luteus ATCC 9631; assay: minimum inhibitory concentration; assay type: cell-based; settings: Gram + Bacteria
[21] = system: Penicillium funiculosum CECT 2914; assay: minimum inhibitory concentration; assay type: cell-based; settings: Fungi
[22] = system: Salmonella typhimurium ATCC 16028; assay: minimum inhibitory concentration; assay type: cell-based; settings: Gram − Bacteria
[23] = system: Serratia marcenses CECT 274; assay: minimum inhibitory concentration; assay type: cell-based; settings: Gram − Bacteria
[24] = system: Citrobacter freundii ATCC 22636; assay: minimum inhibitory concentration; assay type: cell-based; settings: Gram − Bacteria
[25] = system: Gliocadium virens ATCC 4645; assay: minimum inhibitory concentration; assay type: cell-based; settings: Fungi

Compound: CCCCCCCCCCCC(=O)N[C@@H](CCCN=C(N)N)C(=O)OCC.Cl [LAE, ethyl ester of the lauramide of the arginine monohydrochloride]
- M.I.C. [1]: 16 ppm
- M.I.C. [2]: 32 ppm
- M.I.C. [3]: 32 ppm
- M.I.C. [4]: 16 ppm
- M.I.C. [5]: 16 ppm
- M.I.C. [6]: 20 ppm
- M.I.C. [7]: 16 ppm
- M.I.C. [8]: 32 ppm
- M.I.C. [9]: 32 ppm
- M.I.C. [10]: 32 ppm
- M.I.C. [11]: 2 ppm
- M.I.C. [12]: 64 ppm
- M.I.C. [13]: 128 ppm
- M.I.C. [14]: 32 ppm
- M.I.C. [15]: 32 ppm
- viable count With LAE ([16]; Example 1, oil-in-water emulsion with non-ionic surfactant, 7 days): 9.5 · 10^2 cfu/mL
- viable count With LAE ([16]; Example 1, oil-in-water emulsion with non-ionic surfactant, 14 days): 4.0 · 10^2 cfu/mL
- viable count With LAE ([16]; Example 1, oil-in-water emulsion with non-ionic surfactant, Initial): 5.6 · 10^5 cfu/mL
- viable count With LAE ([16]; Example 2, oil-in-water emulsion with an ionic emulsifier, 7 days): 1.0 · 10^2 cfu/mL
- viable count With LAE ([16]; Example 2, oil-in-water emulsion with an ionic emulsifier, 14 days): 1.0 · 10^2 cfu/mL
- viable count With LAE ([16]; Example 2, oil-in-water emulsion with an ionic emulsifier, Initial): 3.6 · 10^4 cfu/mL
- viable count With LAE ([16]; Example 3, water in oil emulsion with non-ionic emulsifiers, 7 days): <9.9 · 10^1 cfu/mL
- viable count With LAE ([16]; Example 3, water in oil emulsion with non-ionic emulsifiers, 14 days): <9.9 · 10^1 cfu/mL
- viable count With LAE ([16]; Example 3, water in oil emulsion with non-ionic emulsifiers, Initial): 7.0 · 10^4 cfu/mL
- viable count With LAE ([16]; Example 4, aqueous solution with a surfactants' mixture (bath gels, disodium cocoamfoacetate), 7 days): <9.9 · 10^1 cfu/mL
- viable count With LAE ([16]; Example 4, aqueous solution with a surfactants' mixture (bath gels, disodium cocoamfoacetate), 14 days): <9.9 · 10^1 cfu/mL
- viable count With LAE ([16]; Example 4, aqueous solution with a surfactants' mixture (bath gels, disodium cocoamfoacetate), Initial): 4.6 · 10^4 cfu/mL
- viable count With LAE ([16]; Example 5, aqueous solution with a surfactants' mixture (bath gels, disodium lauryl sulfosuccinate), 7 days): <9.9 · 10^1 cfu/mL
- viable count With LAE ([16]; Example 5, aqueous solution with a surfactants' mixture (bath gels, disodium lauryl sulfosuccinate), 14 days): <9.9 · 10^1 cfu/mL
- viable count With LAE ([16]; Example 5, aqueous solution with a surfactants' mixture (bath gels, disodium lauryl sulfosuccinate), Initial): 3.6 · 10^4 cfu/mL
- viable count With LAE ([16]; Example 6, hydroalcoholic gel (after-shaving lotions), 7 days): 1.6 · 10^2 cfu/mL
- viable count With LAE ([16]; Example 6, hydroalcoholic gel (after-shaving lotions), 14 days): <9.9 · 10^1 cfu/mL
- viable count With LAE ([16]; Example 6, hydroalcoholic gel (after-shaving lotions), Initial): 4.2 · 10^4 cfu/mL
- viable count With LAE ([16]; Example 7, facial tonic, 7 days): 1.1 · 10^2 cfu/mL
- viable count With LAE ([16]; Example 7, facial tonic, 14 days): <9.9 · 10^1 cfu/mL
- viable count With LAE ([16]; Example 7, facial tonic, Initial): 1.2 · 10^4 cfu/mL
- viable count With LAE ([16]; Example 8, mask-up cleaner, 7 days): 1.8 · 10^2 cfu/mL
- viable count With LAE ([16]; Example 8, mask-up cleaner, 14 days): <9.9 · 10^1 cfu/mL
- viable count With LAE ([16]; Example 8, mask-up cleaner, Initial): 7.2 · 10^4 cfu/mL
- viable count With LAE ([16]; Example 9, fluid oil-in-water emulsion with non-ionic surfactants (body oil), 7 days): 2.3 · 10^2 cfu/mL
- viable count With LAE ([16]; Example 9, fluid oil-in-water emulsion with non-ionic surfactants (body oil), 14 days): <9.9 · 10^1 cfu/mL
- viable count With LAE ([16]; Example 9, fluid oil-in-water emulsion with non-ionic surfactants (body oil), Initial): 7.2 · 10^4 cfu/mL
- viable count With LAE ([16]; Example 10, toothpaste formulation, 7 days): 1.2 · 10^2 cfu/mL
- viable count With LAE ([16]; Example 10, toothpaste formulation, 14 days): <9.9 · 10^1 cfu/mL
- viable count With LAE ([16]; Example 10, toothpaste formulation, Initial): 4.2 · 10^4 cfu/mL
- viable count With LAE ([16]; Example 11, aqueous solution with surfactants (shampoos), 7 days): 1.2 · 10^2 cfu/mL
- viable count With LAE ([16]; Example 11, aqueous solution with surfactants (shampoos), 14 days): <9.9 · 10^1 cfu/mL
- viable count With LAE ([16]; Example 11, aqueous solution with surfactants (shampoos), Initial): 4.2 · 10^4 cfu/mL
- viable count With LAE ([16]; Example 12, oil-in-water emulsion with non-ionic surfactants (face cream), 7 days): 9.2 · 10^2 cfu/mL
- viable count With LAE ([16]; Example 12, oil-in-water emulsion with non-ionic surfactants (face cream), 14 days): <9.9 · 10^1 cfu/mL
- viable count With LAE ([16]; Example 12, oil-in-water emulsion with non-ionic surfactants (face cream), Initial): 3.2 · 10^4 cfu/mL
- viable count With LAE ([16]; Example 13, oil-in-water emulsion with non-ionic surfactants (sun protector, polysorbate 60), 7 days): 4.2 · 10^2 cfu/mL
- viable count With LAE ([16]; Example 13, oil-in-water emulsion with non-ionic surfactants (sun protector, polysorbate 60), 14 days): <9.9 · 10^1 cfu/mL
- viable count With LAE ([16]; Example 13, oil-in-water emulsion with non-ionic surfactants (sun protector, polysorbate 60), Initial): 3.8 · 10^4 cfu/mL
- viable count With LAE ([16]; Example 14, oil-in-water emulsion with non-ionic surfactants (sun protector, cetyl dimethicone copolyol), 7 days): 4.5 · 10^2 cfu/mL
- viable count With LAE ([16]; Example 14, oil-in-water emulsion with non-ionic surfactants (sun protector, cetyl dimethicone copolyol), 14 days): <9.9 · 10^1 cfu/mL
- viable count With LAE ([16]; Example 14, oil-in-water emulsion with non-ionic surfactants (sun protector, cetyl dimethicone copolyol), Initial): 7.9 · 10^4 cfu/mL
- viable count With LAE ([16]; Example 15, emulsion for hands care, 7 days): 7.2 · 10^2 cfu/mL
- viable count With LAE ([16]; Example 15, emulsion for hands care, 14 days): <9.9 · 10^1 cfu/mL
- viable count With LAE ([16]; Example 15, emulsion for hands care, Initial): 8.6 · 10^4 cfu/mL
- M.I.C. [17]: 32 ppm
- M.I.C. [18]: 16 ppm
- M.I.C. [19]: 10 ppm
- M.I.C. [20]: 128 ppm
- M.I.C. [21]: 16 ppm
- M.I.C. [22]: 32 ppm
- M.I.C. [23]: 32 ppm
- M.I.C. [24]: 64 ppm
- M.I.C. [25]: 32 ppm
